“Also recorded” adds a separate entry of the source.
These substances were tested on microorganisms (e.g., bacteria, yeasts, fungi) (assay: Targeting peptide binding to target microorganisms (Table 3)). Conditions: microorganism the targeting peptide binds; binding in aqueous buffers varied by peptide solubility, preferably 1x PBS.

| Substance | Target(s) |
| --- | --- |
| 1T-87 (EAVGQDLVDAHHP; Peptide with targeting and/or antimicrobial activity) [Peptide 1T-87] | S. mitis; also recorded: S. mutans; also recorded: S. oralis |
| 1T-89 (HEDDKRRGMSVEVLGFEVVQHEE; Peptide with targeting and/or antimicrobial activity) [Peptide 1T-89] | S. mitis; also recorded: S. mutans |
| 1T-90 (RNVIGQVL; Peptide with targeting and/or antimicrobial activity) [Peptide 1T-90] | S. gordonii; also recorded: S. mitis; also recorded: S. mutans; also recorded: S. oralis; also recorded: S. sanguinis |
| 1T-91 (TSVRPGAAGAAVPAGAAGAAGAGWRWP; Peptide with targeting and/or antimicrobial activity) [Peptide 1T-91] | S. mitis; also recorded: S. mutans; also recorded: S. oralis; also recorded: S. sanguinis |
| 1T-92 (GQDEGQRRAGVGEGQGVDG; Peptide with targeting and/or antimicrobial activity) [Peptide 1T-92] | S. mitis; also recorded: S. mutans |
| 1T-93 (AMRSVNQA; Peptide with targeting and/or antimicrobial activity) [Peptide 1T-93] | S. epidermidis; also recorded: S. gordonii; also recorded: S. mitis; also recorded: S. mutans; also recorded: S. oralis; also recorded: S. sanguinis |
| 1T-94 (DQVAHSGDMLVQARRRDS; Peptide with targeting and/or antimicrobial activity) [Peptide 1T-94] | S. mitis; also recorded: S. mutans; also recorded: S. oralis |
| 1T-95 (GHLLRVGGRVGGVGGVAGACAQPFGGQ; Peptide with targeting and/or antimicrobial activity) [Peptide 1T-95] | S. gordonii; also recorded: S. mitis; also recorded: S. mutans; also recorded: S. oralis; also recorded: S. sanguinis |
| 1T-96 (VAGACAQPFGGQ; Peptide with targeting and/or antimicrobial activity) [Peptide 1T-96] | S. gordonii; also recorded: S. mitis; also recorded: S. mutans; also recorded: S. oralis; also recorded: S. sanguinis |
| 1T-99 (MKAWLGQ; Peptide with targeting and/or antimicrobial activity) [Peptide 1T-99] | S. gordonii; also recorded: S. mitis; also recorded: S. mutans; also recorded: S. oralis; also recorded: S. sanguinis |
| 1T-100 (LDPLEPRIAPPGDRSHQGAPACHRDPLRGRSARDAER; Peptide with targeting and/or antimicrobial activity) [Peptide 1T-100] | S. gordonii; also recorded: S. mitis; also recorded: S. mutans |
| 1T-101 (RLRVGRATDLPLTSFAVGVVRNLPDAPAH; Peptide with targeting and/or antimicrobial activity) [Peptide 1T-101] | A. naeslundii; also recorded: P. gingivalis; also recorded: S. epidermidis; also recorded: S. gordonii; also recorded: S. mitis; also recorded: S. mutans; also recorded: S. oralis; also recorded: S. sanguinis |
| 1T-104 (RAVAAHLQGRHHGHQVRRQRHGQR; Peptide with targeting and/or antimicrobial activity) [Peptide 1T-104] | S. mitis |
| 1T-105 (GEGLPPPVLHLPPPRMSGR; Peptide with targeting and/or antimicrobial activity) [Peptide 1T-105] | S. epidermidis; also recorded: S. gordonii; also recorded: S. mitis; also recorded: S. mutans; also recorded: S. oralis |
| 1T-106 (DALRRSRSQGRRHR; Peptide with targeting and/or antimicrobial activity) [Peptide 1T-106] | S. gordonii; also recorded: S. mitis; also recorded: S. mutans; also recorded: S. oralis; also recorded: S. salivarious |
| 1T-107 (SPVPRFTAVGGVSRGSP; Peptide with targeting and/or antimicrobial activity) [Peptide 1T-107] | A. naeslundii; also recorded: S. epidermidis; also recorded: S. gordonii; also recorded: S. mitis; also recorded: S. mutans; also recorded: S. oralis; also recorded: S. salivarious; also recorded: S. sanguinis |
| 1T-108 (WGPLGPERPLW; Peptide with targeting and/or antimicrobial activity) [Peptide 1T-108] | S. gordonii; also recorded: S. mitis; also recorded: S. mutans; also recorded: S. oralis; also recorded: S. salivarious; also recorded: S. sanguinis |
| 1T-109 (VTTNVRQGAGS; Peptide with targeting and/or antimicrobial activity) [Peptide 1T-109] | A. naeslundii; also recorded: S. epidermidis; also recorded: S. gordonii; also recorded: S. mitis; also recorded: S. mutans; also recorded: S. oralis; also recorded: S. salivarious; also recorded: S. sanguinis |
| 1T-110 (LAAKTAVCVGRAFM; Peptide with targeting and/or antimicrobial activity) [Peptide 1T-110] | A. naeslundii; also recorded: P. gingivalis; also recorded: S. epidermidis; also recorded: S. gordonii; also recorded: S. mitis; also recorded: S. mutans; also recorded: S. oralis; also recorded: S. sanguinis |

| Substance | Target(s) |
| --- | --- |
| 1T-112 (SDNDGKLILGTSQ; Peptide with targeting and/or antimicrobial activity) [Peptide 1T-112] | S. gordonii |
| 1T-113 (HGAHQRTGQRLHHHRGRTVSGCRQNPVAGVDPDEHR; Peptide with targeting and/or antimicrobial activity) [Peptide 1T-113] | S. mitis |
| 1T-114 (RQAPGPGLVTITAACSAPGSRSR; Peptide with targeting and/or antimicrobial activity) [Peptide 1T-114] | A. naeslundii; also recorded: P. gingivalis; also recorded: S. epidermidis; also recorded: S. gordonii; also recorded: S. mitis; also recorded: S. mutans; also recorded: S. oralis; also recorded: S. sanguinis |
| 1T-117 (GPGVVGPAPFSRLPAHALNL; Peptide with targeting and/or antimicrobial activity) [Peptide 1T-117] | S. mutans |
| 1T-119 (SPATQKAPTRAQPSRAPVQDCGDGRPTAAPDDVERLSPR; Peptide with targeting and/or antimicrobial activity) [Peptide 1T-119] | S. gordonii; also recorded: S. mitis; also recorded: S. mutans; also recorded: S. oralis |
| 1T-121 (FAKETGFGIGGAQEGWWIIADIYGPNPF; Peptide with targeting and/or antimicrobial activity) [Peptide 1T-121] | S. gordonii; also recorded: S. mitis; also recorded: S. mutans; also recorded: S. oralis; also recorded: S. salivarious; also recorded: S. sanguinis |
| 1T-122 (GAIPDPVTHRVDWEEDHQTRPSR; Peptide with targeting and/or antimicrobial activity) [Peptide 1T-122] | S. mitis |
| 1T-123 (LVRRNAVAGRSDGLAGAEQLDLVRLQGVL; Peptide with targeting and/or antimicrobial activity) [Peptide 1T-123] | S. gordonii |
| 1T-124 (LFDERNKIA; Peptide with targeting and/or antimicrobial activity) [Peptide 1T-124] | S. mitis; also recorded: S. mutans; also recorded: S. oralis |
| 1T-125 (DAITGGNPPLSDTDGLRP; Peptide with targeting and/or antimicrobial activity) [Peptide 1T-125] | S. epidermidis; also recorded: S. gordonii; also recorded: S. mutans; also recorded: S. oralis |
| 1T-126 (QGLARPVLRRIPL; Peptide with targeting and/or antimicrobial activity) [Peptide 1T-126] | S. gordonii; also recorded: S. mitis; also recorded: S. mutans |
| 1T-139 (AVAGAAVGALLGNDARSTAVGAAIGGALGAGAGELTKNK; Peptide with targeting and/or antimicrobial activity) [Peptide 1T-139] | A. naeslundii; also recorded: S. gordonii; also recorded: S. mitis; also recorded: S. mutans; also recorded: S. oralis |
| 1T-141 (KKFIILLFILVQGLIFSATKTLSDIIAL; Peptide with targeting and/or antimicrobial activity) [Peptide 1T-141] | F. nucleatum; also recorded: P. gingivalis; also recorded: S. epidermidis; also recorded: S. gordonii; also recorded: S. mitis; also recorded: S. mutans; also recorded: S. oralis; also recorded: S. sanguinis |
| 1T-145 (VEAGKRNISLENIEKISKGLGISISELFKYIEEGEDKIG; Peptide with targeting and/or antimicrobial activity) [Peptide 1T-145] | S. mitis; also recorded: S. mutans; also recorded: S. oralis |
| 1T-154 (YFSFLEIVGMARR; Peptide with targeting and/or antimicrobial activity) [Peptide 1T-154] | P. gingivalis |
| 1T-159 (IFSLHHFALICSEMGTFAVSKRAKYKWEVL; Peptide with targeting and/or antimicrobial activity) [Peptide 1T-159] | P. gingivalis |
| 1T-170 (AYGKVFSMDIMLSENDKLIVLRISHHSAWH; Peptide with targeting and/or antimicrobial activity) [Peptide 1T-170] | P. gingivalis |
| 1T-177 (GTNVPTQILGYSREERFDYEPAPEQR; Peptide with targeting and/or antimicrobial activity) [Peptide 1T-177] | P. gingivalis; also recorded: S. gordonii; also recorded: S. mitis; also recorded: S. mutans; also recorded: S. oralis; also recorded: S. salivarious; also recorded: S. sanguinis |
| 1T-188 (HRKDVYKK; Peptide with targeting and/or antimicrobial activity) [Peptide 1T-188] | S. sanguinis |

Reference: patent publication US20110039762A1, “TARGETED ANTIMICROBIAL MOIETIES” (C3 JIAN, INC., priority 2009, published 2011)
